Results as given in patent publication US20200138764A1, “METHODS AND DEVICES FOR ACTIVATING ADIPOSE TISSUE” (The Procter & Gamble Company, priority 2018, published 2020).

Tests used:
[1] = tested on: fat tissue; experiment: qPCR biomarker analysis of fat tissue, in vivo; set-up: species or system Mice (C57BJ/6); settings: mouse fat tissue, SC injection twice a week over 3 weeks
Protocol: (§1) Mice (8-10 weeks old males C57BJ/6 strain) were obtained from a commercial vendor Charles River Laboratories. The animal study protocols were approved by the Institutional Animal Care and Use Committee, at the Procter & Gamble Company. Mice were acclimated to the facility for 14 days prior to initiating the study. From arrival, mice were housed in solid-bottom shoebox styled cages within room temperature of 22±2° C. with ad libitum access to water and regular rodent chow diet on a 12 h light/dark cycle. Mice were single housed and offered bedding and various enrichment options. The bedding and nesting material allowed the mice to thermoregulate to their desired level of comfort. Body weights were recorded at the beginning of the study, on each dosing day prior to dosing, and final weights were recorded at the end of the study. Overall food consumption, fecal output, and body appearance were monitored during cage side clinical observations but were not scientifically measured or tracked. During the dosing period, the animals were observed several times per day (for example, before and during injection, immediately to 30-min post injection, a few hours after injection, and end of work day).
Three groups of animals were treated with mirabegron (i.e. positive control) (n=4), placebo (n=2) and Formula III (n=6) on the left side while the right side received placebo in all three groups. The injection was performed using a 25-27-gauge ½-⅝″ length needle via a subcutaneous (SC) injection near or into the inguinal fat pad region of the lower abdomen. Dosing was done twice a week injections over 3 weeks. Necropsy was done at week 4. Test materials were administered at room temperature and in a neutral pH range. Three days after last dosing animals were euthanized with CO2 inhalation, inguinal fat pads were harvested, and tissues were processed for histology and biomarker analysis.
The qPCR biomarker analysis was conducted from flash frozen fat tissue from mouse study described above. First, RNA was manually extracted with RNAdvance Tissue kit (Agencourt). RNA was extracted from flash frozen fat tissue according to manufactuer's directions. For example, 5 mm steel beads were placed in the freezer for approximately 15-20 minutes. Next, Qiagen Buffer RLT was cooled to 4° C. for 20 minutes and placed in a 96 well 1.5 mL tube rack for sample transfer. Isopropanol was added to Agencourt wash buffer. 100 mL aliquots of 70% ethanol in water were prepared. The RNA Tissue beads were allowed to warm to 22° C. (˜30 minutes), and then the beads were shaken vigorously and intermittently for at least 15-20 minutes. 1 stainless steel bead was added to a 2 mL round bottom tube stored on dry ice. The tissue sample was then transferred to the 2 mL round bottom tube.
The tube rack was placed on wet ice. Then, the tubes were transferred from dry ice to the rack in wet ice and 350 μL of cold buffer RLT were added to the tubes. The beads were beaten at 30 Hz for 2 minutes. After bead beating, samples were centrifuged for 2 minutes. The supernatant was transferred into 96 well deep well isolation plate.
80 μL of RNATissue beads were combined with 320 μL of isopropanol to create a Bind Buffer. This solution was prepared fresh for each isolation with any unused solution discarded.
400 μL of Bind Buffer was added to the to RLT mixture and slowly mixed. The solution was incubated at room temperature for 10 minutes. Special care was taken to avoid the formation of bubbles while tip mixing.
The mixture was placed on a magnet (96 well plate—Agencourt SPRIPlate) for 6-10 minutes. After the solution became clear, the supernatant was removed from each tube while the tubes remained on the magnet and the solution was discarded.
The tubes were removed from the magnet and the pellets were washed with 800 μL of the Isopropanol Wash Buffer ten times. […]

[2] = tested on: adipocyte; experiment: In vivo browning study in lean mice: Fat % by image analysis of H&E stained tissue; set-up: species or system Mice (C57BJ/6); settings: mice, SC injection, Formula III one side and mirabegron other side; high and middle dosage merged; H&E images
Protocol: as §1
[…] The injection was performed using a 25-27-gauge ½-⅝″ length needle via a subcutaneous (SC) injection near or into the inguinal fat pad region of the lower abdomen. Dosing was done twice a week injections over 3 weeks. Necropsy was done at week 4. […]
Segments of adipocyte and inter-cellular regions in a stained image were identified by Python […] package. […] The threshold between adipocyte and inter-cellular regions in a converted image was detected by the Otsu filter function of the […]. The detected value was adjusted by multiplying 1.1.
The ratio of adipocyte in an image was calculated from the pixel number of the segments—Adipocyte Pixel was divided by Total Pixel.
The significance of the difference in Adipocyte Ratio between treatment and control groups was assessed by the Negative Binomial Generalized Linear Mixed-Effects Model using glmer.nb function of R lme4 package. […]

`Nc1nc(CC(=O)Nc2ccc(CCNC[C@H](O)c3ccccc3)cc2)cs1` [Mirabegron, mirabegron] was tested, and the “Average Fold vs Placebo: AdipoQ” value [1] was 13.7, the “Average Fold vs Placebo: Adrb3” value [1] was 16.3 and the “Average Fold vs Placebo: Cidea” value [1] was 39.7. For the same molecule, the “Average Fold vs Placebo: Cox7a1” value [1] was 27.8, the “Average Fold vs Placebo: Cox8b” value [1] was 38.6 and the “Average Fold vs Placebo: Dio2” value [1] was 8.3. For the same molecule, the “Average Fold vs Placebo: Elovl3” value [1] was 19.1, the “Average Fold vs Placebo: IL6” value [1] was 3.3 and the “Average Fold vs Placebo: Ppargc1” value [1] was 12.0. The “Average Fold vs Placebo: Prdm16” value [1] was 5.0, the “Average Fold vs Placebo: Tfap2a” value [1] was 15.2 and the “Average Fold vs Placebo: UCP1” value [1] was 170.3. For the same molecule, the “Average Fat % (Adipocyte Pixel / Total Pixel)” value [2] was 94.43%.
